Active and inactive are the calls of the source. No cut-off for these calls is given here.

The target in data set [1] is T1, Vitamin D3 receptor (Homo sapiens) (UniProt P11473).
T1 sequence (whole entry): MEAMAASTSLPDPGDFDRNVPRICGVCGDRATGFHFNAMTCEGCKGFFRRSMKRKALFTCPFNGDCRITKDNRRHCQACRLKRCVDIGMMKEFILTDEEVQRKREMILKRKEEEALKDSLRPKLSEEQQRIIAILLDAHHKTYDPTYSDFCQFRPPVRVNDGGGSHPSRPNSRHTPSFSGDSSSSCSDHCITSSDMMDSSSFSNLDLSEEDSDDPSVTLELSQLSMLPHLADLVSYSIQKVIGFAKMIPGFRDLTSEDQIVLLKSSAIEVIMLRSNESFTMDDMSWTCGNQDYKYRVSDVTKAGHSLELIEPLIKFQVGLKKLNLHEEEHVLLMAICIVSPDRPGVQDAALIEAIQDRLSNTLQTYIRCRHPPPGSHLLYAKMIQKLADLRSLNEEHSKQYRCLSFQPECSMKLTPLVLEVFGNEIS
Put plainly: Activation of VDR (unknown origin) expressed in human HeLa cells measured after 24 hrs by luciferase reporter assay. In kind it is cell-based.

The target in data set [2] is T1, Vitamin D3 receptor (Homo sapiens). Put plainly: Modulation of VDR (unknown origin) expressed in human HeLa cells assessed as increase in calcitriol-induced response measured after 24 hrs by luciferase reporter assay. Format: cell-based.
For data set [3], the target named is Genome polyprotein (dengue virus type 2) (UniProt P29990). Briefly: Inhibition of Dengue virus 2 NS2B-NS3 protease.
For data set [4], the system named is HeLa. Briefly: Cytotoxicity against human HeLa cells measured after 24 hrs by MTT assay. In kind it is cell-based.
In data set [5] the test system is HeLa. Put plainly: Induction of autophagy in human HeLa cells transformed with VDR shRNA assessed as up regulation of LC3-2 expression at 10 uM measured after 4 hrs in presence of calcitriol by western blot analysis. In kind it is functional, cell-based.
Data set [6] has as its system HeLa. Briefly: Induction of autophagy in human HeLa cells transformed with VDR shRNA assessed as effect on p62 expression at 10 uM measured after 4 hrs in presence of calcitriol by Western blot analysis. Format: functional, cell-based.
The target of data set [7] is T1, Vitamin D3 receptor (Homo sapiens). Put plainly: Modulation of VDR in human HeLa cells assessed as increase in calcitriol-induced upregulation of LC3-2 expression at 10 uM measured after 4 hrs by Western blot analysis. In kind it is cell-based.
Data set [8] concerns HeLa. Briefly: Induction of autophagy in human HeLa cells transformed with VDR shRNA assessed as up regulation of LC3-1 expression at 10 uM measured after 4 hrs in presence of calcitriol by Western blot analysis. In kind it is functional, cell-based.
The target in data set [9] is T1, Vitamin D3 receptor (Homo sapiens). Briefly: Activation of VDR in human HeLa cells assessed as up regulation of phosphorylated p65 expression at 10 uM measured after 24 hrs in the presence of calcitriol by Western blot analysis. In kind it is cell-based.
For data set [10], the system named is HeLa. Put plainly: Up regulation of VDR expression in human HeLa cells at 10 uM measured after 4 hrs in presence of VDR shRNA by Western blot analysis. Format: functional, cell-based.
For data set [11], the target named is T1, Vitamin D3 receptor (Homo sapiens). Put plainly: Modulation of VDR in human HeLa cells assessed as down regulation of p65 expression at 10 uM measured after 24 hrs in the presence of calcitriol by Western blot analysis. Format: cell-based.
Data set [12] has the same target. Put plainly: Modulation of VDR in human HeLa cells assessed as increase in calcitriol-induced upregulation of p62 expression at 10 uM measured after 4 hrs by Western blot analysis. In kind it is cell-based.
The test system of data set [13] is HeLa. Put plainly: Induction of autophagy in human HeLa cells transformed with VDR shRNA assessed as effect on p62 expression at 10 uM measured after 4 hrs by Western blot analysis. Format: functional, cell-based.
Data set [14] relates to HeLa. Briefly: Induction of autophagy in human HeLa cells assessed as calcitriol-induced up regulation of LC3-1 expression at 10 uM measured after 4 hrs by Western blot analysis. In kind it is functional, cell-based.
The target in data set [15] is T1, Vitamin D3 receptor (Homo sapiens). Briefly: Modulation of VDR in human HeLa cells assessed as increase in calcitriol-induced LC3-2 to LC3-1 ratio at 10 uM measured after 4 hrs by Western blot analysis. In kind it is cell-based.
The subject of data set [16] is HeLa. Briefly: Induction of autophagy in human HeLa cells transformed with shRNA against VDR assessed as downregulation of LC3-2 expression at 10 uM measured after 4 hrs. Format: functional, cell-based.
For data set [17], the target named is T1, Vitamin D3 receptor (Homo sapiens). Put plainly: Modulation of VDR (unknown origin) expressed in human HeLa cells assessed as increase in calcitriol-induced response at 10 uM measured after 24 hrs by luciferase reporter assay relative to control. In kind it is cell-based.

For the molecule `O=C1[C@@H]2CCCN2[C@@H](Cc2ccccc2)N1c1ccc([N+](=O)[O-])cc1`, the result in data set [1] and in data set [2] was inactive. In addition, the “Inhibition (active/not active)” value in [3] was “Active”. The same molecule had a CC10 in the data set on HeLa [4] above 10 µM.
In the case of `O=C1[C@@H]2CCCN2[C@@H](c2cccs2)N1c1ccc([N+](=O)[O-])cc1`, the outcome in data set [1] and in data set [2] was inactive. The “Inhibition (active/not active)” value in data set [3] is “inactive”. The CC10 in the data set with HeLa [4] is above 10 µM.
`O=C1[C@@H]2CCCN2[C@@H](Cc2ccc([N+](=O)[O-])cc2)N1c1ccc([N+](=O)[O-])cc1`: the outcome in data set [1] and in [2] was inactive. For the same molecule, the “Inhibition (active/not active)” value in [3] was “Active”. This molecule showed a CC10 in the data set with HeLa [4] above 10 µM.
`O=C1[C@@H]2CCCN2[C@@H](c2ccc(C(F)(F)F)cc2)N1c1ccc([N+](=O)[O-])cc1`: the outcome in data set [1] and in data set [2] was inactive. In addition, the “Inhibition (active/not active)” value in data set [3] is “Active”. For the same molecule, the CC10 with HeLa [4] was above 10 µM.
Regarding `CC(C)c1ccc([C@H]2N(c3ccc([N+](=O)[O-])cc3)C(=O)[C@@H]3CCCN32)cc1`, the outcome in data set [1] and in data set [2] was inactive. For the same molecule, the “Inhibition (active/not active)” value in [3] is “Active”. In the data set on HeLa [4], this molecule registered a CC10 above 10 µM.
Regarding `O=C1[C@@H]2CCCN2[C@@H](c2ccccc2[N+](=O)[O-])N1c1ccc([N+](=O)[O-])cc1`, the result in data set [1] and in [2] was inactive. Further, in [3], the “Inhibition (active/not active)” value was “inactive”. Besides, the CC10 with HeLa [4] was above 10 µM.
`O=C1[C@@H]2CCCN2[C@@H](c2ccc(Cl)cc2)N1c1ccc([N+](=O)[O-])cc1`: the outcome in data set [1] and in data set [2] was inactive. Also, the “Inhibition (active/not active)” value in data set [3] was “Active”. The CC10 with HeLa [4] was above 10 µM.
As for `O=C1[C@@H]2CCCN2[C@@H](c2ccccc2)N1c1ccc([N+](=O)[O-])cc1`, the result in data set [1] and in [2] was inactive. For the same molecule, in data set [3], the “Inhibition (active/not active)” value was “Active”. For the same molecule, the CC10 in the data set on HeLa [4] was above 10 µM.
As to `COc1cc([C@H]2N(c3ccc([N+](=O)[O-])cc3)C(=O)[C@@H]3CCCN32)ccc1O`, the result (in the data set with HeLa [5]; in data set [7]; in the data set with HeLa [8]; in [9]; in data set [11]; in data set [12]) was Active. Moreover, the result in the data set with HeLa [14] was Active. Moreover, the result (in the data set on HeLa [6]; in [1]; in the data set with HeLa [10]; in the data set on HeLa [13]) was inactive. In data set [2], the Activity entry is “Dose-dependent effect”. For the same molecule, the “Inhibition (active/not active)” value in [3] is “inactive”. Besides, in the data set on HeLa [4], the CC10 was above 10 µM.
In the case of `O=C1[C@@H]2CCCN2[C@@H](c2ccco2)N1c1ccc([N+](=O)[O-])cc1`, the result (in the data set on HeLa [5]; in [7]; in the data set with HeLa [8]; in data set [9]; in data set [11]; in [12]) was Active. Also, the result with HeLa [14] was Active. The outcome (in the data set with HeLa [6]; in [1]; with HeLa [10]; in the data set with HeLa [13]) was inactive. For the same molecule, the Activity result in data set [2] was “Dose-dependent effect”. Moreover, the “Inhibition (active/not active)” value in [3] is “inactive”. This molecule also showed a CC10 in the data set with HeLa [4] above 10 µM.
Consider `O=C1[C@@H]2CCCN2[C@@H](c2ccc(O)cc2)N1c1ccc([N+](=O)[O-])cc1`, for which the result in data set [1] was inactive. In [2], the Activity result is “Dose-dependent effect”. The “Inhibition (active/not active)” value in data set [3] is “inactive”. The molecule further gave a CC10 in the data set with HeLa [4] above 10 µM.
As to `O=C1[C@@H]2CCCN2[C@@H](c2ccc([N+](=O)[O-])cc2)N1c1ccc([N+](=O)[O-])cc1`, in data set [1], the outcome was inactive. In addition, the Activity result in data set [2] is “Dose-dependent effect”. Further, in data set [3], the “Inhibition (active/not active)” value is “Active”. The CC10 with HeLa [4] was above 10 µM.
In the same order, the values of `COc1ccc([C@H]2N(c3ccc([N+](=O)[O-])cc3)C(=O)[C@@H]3CCCN32)cc1` are “inactive”, “inactive”, “Active” and above 10 µM.
Turning to `CSCC[C@H](NC(=O)OC(C)(C)C)C(=O)Nc1ccc([C@H]2N(c3ccc([N+](=O)[O-])cc3)C(=O)[C@@H]3CCCN32)cc1`, the outcome (in [15]; with HeLa [5]; in data set [7]; in the data set with HeLa [8]; in data set [9]; in the data set with HeLa [10]) was Active. In addition, the result (in data set [11]; in data set [12]; in the data set on HeLa [14]) was Active. Moreover, the outcome (in the data set with HeLa [6]; in [1]; with HeLa [13]) was inactive. Besides, in data set [2], the Activity result is “Dose-dependent effect”. In addition, the “Inhibition (active/not active)” value in [3] was “inactive”. In addition, in the data set with HeLa [4], the CC10 is above 10 µM.
Consider `O=C1[C@@H]2CCCN2[C@@H](c2cccc([N+](=O)[O-])c2)N1c1ccc([N+](=O)[O-])cc1`, for which the result in [1] and in data set [2] was inactive. The “Inhibition (active/not active)” value in data set [3] was “Active”. Besides, the CC10 in the data set with HeLa [4] is above 10 µM.
With `O=C1[C@@H]2CCCN2[C@@H](CCC[C@H]2N(c3ccc([N+](=O)[O-])cc3)C(=O)[C@@H]3CCCN32)N1c1ccc([N+](=O)[O-])cc1`, the outcome in data set [1] and in data set [2] was inactive. The “Inhibition (active/not active)” value in data set [3] was “inactive”. The molecule further returned a CC10 in the data set with HeLa [4] above 10 µM.
`O=C1[C@@H]2CCCN2[C@@H](c2ccc([C@H]3N(c4ccc([N+](=O)[O-])cc4)C(=O)[C@@H]4CCCN43)cc2)N1c1ccc([N+](=O)[O-])cc1`: the result in [1] and in data set [2] was inactive. Further, the “Inhibition (active/not active)” value in [3] is “inactive”. The molecule also came in with a CC10 with HeLa [4] above 10 µM.
For `COc1ccc(C[C@H]2N(c3ccc([N+](=O)[O-])cc3)C(=O)[C@@H]3CCCN32)cc1OC`, the outcome (in [15]; in data set [7]; in the data set with HeLa [8]; in the data set on HeLa [16]; in data set [9]; in the data set with HeLa [10]) was Active. The result in data set [11] and in data set [12] was Active. For the same molecule, the outcome (in the data set on HeLa [6]; in [1]; in the data set on HeLa [13]; in the data set on HeLa [14]) was inactive. Moreover, the Activity entry in [2] was “Dose-dependent effect”. For the same molecule, the “Inhibition (active/not active)” value in data set [3] is “inactive”. Further, the fold change (FC) in data set [17] was 2.5 to 3. Further, the CC10 in the data set with HeLa [4] is above 10 µM.

The record behind these values is ChEMBL document CHEMBL4393731, “Discovery of fused bicyclic derivatives of 1H-pyrrolo[1,2-c]imidazol-1-one as VDR signaling regulators” (Bioorg Med Chem, 2019).
